Source: EP1506960B1, “Indole compounds as inhibitors of tubulin polymerisation for the treatment of angiogenesis-related disorders” (National Health Research Institutes, priority 2003, dated 2005)
pIC50: −log10 of the molar value. Like-named read-outs stand apart in the source and are kept apart here.

Assays:
[1] = tested on: KB100; assay: Cell growth inhibition assay on drug-resistant line KB100; settings: Homo sapiens, 72 h, read-out: Cytotoxicity KB100
Protocol: (§1) Cell Growth Inhibition Assay: MCF-7 breast carcinoma cells were maintained in plastic dishes in DMEM medium supplemented with 10% fetal bovine serum. For in vitro treatment, tumor cells were seeded in […] of culture medium/well in 96-well plates to a final cell density of 6 x 10^3 cell/mL and incubated in a CO2 incubator at 37 °C for 24 h. The cells were treated with at least five different concentrations of a test indole compound, and incubated in a CO2 incubator at 37 °C for 72 h. The number of viable cells was estimated using MTS assay and absorbance was measured at 490 nm. Cytotoxicity of the test compounds was expressed in terms of IC50 values. The values presented represent averages of three independent experiments, each with duplicate samples.
(§2) Indole compounds were tested against several panels of drug-resistant cell lines. It is well known that several anti-mitotic agents, including vinca alkaloid (vincristine, vinblastine) and taxol, have been introduced in clinic to treat various human cancers. […] The mechanisms responsible for taxol resistance include overexpression of p-glycoprotein and mutation of tubulin.
(§3) The mechanisms responsible for VP16-resistance (KB7D) were down-regulation of topoisomerase II and overexpression of MRP 1.

[2] = tested on: KB-Vin10; assay: cells; settings: read-out: Cytotoxicity KB -Vin10
Protocol: as §1, §2, §3

[3] = tested on: KB7D; assay: cells; settings: Homo sapiens, 72 h, read-out: Cytotoxicity KB7D
Protocol: as §1, §2, §3

[4] = tested on: KB; assay: Cell growth inhibition assay (cytotoxicity), KB cell line; settings: Homo sapiens, 72 h, read-out: Cytotoxicity KB
Protocol: as §1, §2, §3

[5] = tested on: HONECis-6; assay: Cell growth inhibition assay on drug-resistant line HONECis-6; settings: read-out: Cytotoxicity HONECis -6, 72 h
Protocol: as §1, §2, §3

[6] = tested on: MKN45 stomach cell line; assay: Cell growth inhibition assay (cytotoxicity), MKN45; type: cell-based; settings: Homo sapiens, MKN-45, Table 2, MTS, 72 h
Protocol: (§4) In addition, indole compounds described in the "Summary" section were also tested on the A549 lung cell line, MESSA uterine cell line, MKN45 stomach cell line, SW480 colon cell line, NUGC3 stomach cell line, and MESSA/DX5 uterine cell line.

[7] = tested on: HONE-1; assay: Cell growth inhibition assay (cytotoxicity), HONE-1 cell line; settings: Homo sapiens, HONE1, 72 h
[8] = tested on: KBtaxol-5; assay: Cell growth inhibition assay on drug-resistant line KBtaxol-5; settings: Homo sapiens, 72 h, read-out: Cytotoxicity KBtaxol -5
Protocol: as §1, §2, §3

[9] = tested on: NUGC; assay: Cell growth inhibition assay (cytotoxicity), NUGC; type: cell-based; settings: Homo sapiens, Table 2, Stomach, MTS, 72 h
Protocol: as §4

[10] = tested on: MCF-7 breast carcinoma cells; assay: Cell growth inhibition assay (cytotoxicity), MCF7; type: cell-based; settings: Homo sapiens, Table 2, MTS, 72 h
Protocol: In one assay, an indole compound is tested for its cytotoxicity on MCF-7 cells (a breast carcinoma cell line). More specifically, cells are incubated with a test compound for 24 hr. The cytotoxic effect can be determined using the MTS (3-(4,5-dimethylthiazol-2-yl)-5-(3-carboxymethoxyphenyl)-2-(4-sulfophenyl)-2H-tetrazolium, inner salt) assay method described in Goodwin et al. (1995, J. Immunol. Methods. 179: 95-103). Cytotoxicity of the test compound is expressed in terms of IC50 values (i.e., the concentration of the test compound which achieves a half-maximal inhibition of cell growth).

[11] = tested on: KB100R; assay: Cell growth inhibition assay on line KB100R; settings: Homo sapiens, 72 h, read-out: Cytotoxicity KB100R
Protocol: as §1, §2, §3

[12] = tested on: A549 lung cell line; assay: Cell growth inhibition assay (cytotoxicity), A549; type: cell-based; settings: Homo sapiens, Table 2, MTS, 72 h
Protocol: as §4

[13] = tested on: MESSA/DX5 uterine cell line; assay: Cell growth inhibition assay (cytotoxicity), MESSA/DX5; type: cell-based; settings: Homo sapiens, MES-SA/Dx5, Table 2, MTS, 72 h
Protocol: as §4

[14] = tested on: KB7DR; assay: Cell growth inhibition assay on line KB7DR; settings: Homo sapiens, 72 h, read-out: Cytotoxicity KB7DR
Protocol: as §1, §2, §3

[15] = tested on: SW480 colon cell line; assay: Cell growth inhibition assay (cytotoxicity), SW480; type: cell-based; settings: Homo sapiens, Table 2, MTS, 72 h
Protocol: as §4

[16] = tested on: Human MKN45 cancer cells; assay: Tumor regression model, MKN45 xenograft; type: in vivo, Male CD 1 nude mice
Protocol: (§5) Tumor Regression Models: The procedures of cancer cell implantation were similar to those previously reported in Chen et al., Cancer Res., (1998) 58:2777-2783, with modifications. Male CD 1 nude mice (5~6 weeks old) were purchased from Charles River Laboratories (Wilmington, MA, USA). Human MKN45 and KB cancer cells were maintained in RPMI 1640 plus 10% fetal bovine serum. Each animal was subcutaneously implanted with 5×10^5 MKN45 or 1×10^6 KB cells in 0.1 ml at one flank. Tumor growth was examined three times a week after implantation. The volume of tumor was measured with a caliper and calculated as 1/2×length×width^2 in mm^3. Test compounds were dissolved completely in a vehicle mixture of dimethyl sulfoxide:cremophor:saline (1:4:15). When the size of a growing tumor reached approximately 100 mm^3, the mice were treated with test compounds intravenously from tail veins at a concentration of 50 mg/kg daily for two weeks. Mice in a control group were treated with the solvent vehicle only. Tumor sizes and body weights were measured twice a week and after the mice were sacrificed.

[17] = tested on: Human KB cancer cells; assay: Tumor regression model, KB xenograft; type: in vivo, Male CD 1 nude mice; settings: Compound 1 and cisplatin together vs cisplatin alone
Protocol: as §5

[18] = tested on: MESSA uterine cell line; assay: Cell growth inhibition assay (cytotoxicity), MESSA; type: cell-based; settings: Homo sapiens, MES-SA, Table 2, MTS, 72 h
Protocol: as §4

Row | Compound | pIC50 [1] | pIC50 ([2]; Homo sapiens, KB-VIN10, 72 h) | pIC50 [3] | pIC50 [4] | pIC50 ([7]; read-out: Cytotoxicity HONE -1) | pIC50 [8] | pIC50 ([5]; Homo sapiens) | pIC50 [14] | other results
1 | CC[C@@]1(O)C(=O)OCc2c1cc1n(c2=O)Cc2cc3ccccc3nc2-1 [CPT, camptothecin] | 5.89 | 6.40 | 6.88 | 7.59 | – | – | – | – | –
2 | N.N.[Cl][Pt][Cl] [Cisplatin, reference compound] | – | – | – | – | – | – | – | – | pIC50 ([5]; Table 1, Cis Res., MTS): 4.82; pIC50 ([2]; Table 1, Vin. Res, MTS, 72 h): 8.30
3 | COc1ccc2c(C(=O)c3cc(OC)c(OC)c(OC)c3)c[nH]c2c1 [Compound 1, (6-methoxy-1H-indol-3-yl)-(3,4,5-trimethoxy-phenyl)-methanone] | 8.10 | 8.15 | 8.40 | 8.22 | 8.40 | 8.15 | 8.35 | 8.22 | pIC50 [6]: 8.40; pIC50 ([7]; read-out: Cytotoxicity HONE-1): 8.40; pIC50 [9]: 8.52; pIC50 [10]: 8.12; pIC50 [11]: 7.92; pIC50 [12]: 7.77; pIC50 [13]: 8.42; pIC50 [15]: 8.52; activity in inhibiting tumor growth, administered together with cisplatin ([16]; Compound 1 and cisplatin together vs cisplatin alone): higher activity in inhibiting tumor growth than cisplatin administered alone; activity in inhibiting tumor growth ([16]; intravenously 50 mg/kg daily for two weeks, compared with cisplatin): higher activity in inhibiting tumor growth than cisplatin; activity in inhibiting tumor growth, administered together with cisplatin [17]: higher activity in inhibiting tumor growth than cisplatin administered alone; pIC50 [18]: 8.15
4 | COc1ccc2c(C(=O)c3cc(OC)c(OC)c(OC)c3)cn(C(=O)OC(C)(C)C)c2c1 [Compound 6, 6-methoxy-3-(3,4,5-trimethoxy-benzoyl)-indole-1-carboxylic acid tert-butyl ester] | 7.74 | 8.02 | 8.10 | 7.89 | 7.72 | 7.43 | 7.72 | 7.82 | pIC50 [11]: 7.74
5 | CC(=O)O[C@H]1C(=O)[C@@]2(C)[C@H]([C@H](OC(=O)c3ccccc3)[C@]3(O)C[C@H](OC(=O)[C@H](O)[C@@H](NC(=O)c4ccccc4)c4ccccc4)C(C)=C1C3(C)C)[C@]1(OC(C)=O)CO[C@@H]1C[C@@H]2O [Taxol, paclitaxel, reference compound] | – | – | – | 8.00 | – | 7.10 | – | – | –
6 | COc1cc([C@@H]2c3cc4c(cc3[C@@H](O[C@@H]3O[C@@H]5CO[C@@H](C)O[C@H]5[C@H](O)[C@H]3O)[C@H]3COC(=O)[C@H]23)OCO4)cc(OC)c1O [VP-16] | – | – | 4.36 | 6.30 | – | – | – | 5.46 | –
7 | CC[C@]1(O)C[C@H]2CN(CCc3c([nH]c4ccccc34)[C@@](C(=O)OC)(c3cc4c(cc3OC)N(C=O)[C@H]3[C@@](O)(C(=O)OC)[C@H](OC(C)=O)[C@]5(CC)C=CCN6CC[C@]43[C@@H]65)C2)C1 [Vincristine, reference compound] | – | 7.37 | 5.72 | 9.00 | 9.30 | – | 9.22 | 6.47 | –
